{"source": "patent US10420781B2", "about": "“Thyroid hormone receptor agonist and use thereof” (Metabasis Therapeutics, Inc., priority 2016, dated 2019)", "key": {"[1]": {"test_system": "fT3 and fT4 levels in human serum", "experiment": "Ex vivo effect on fT3 and fT4 levels in human serum (RIA)", "procedure": "(§1) Compound I was tested to measure its ex vivo effects at concentrations ranging from 0 to 100 μM on the free 3,5,3′-triiodothyronine (fT3) and the free 3,5,3′,5′ tetraiodothyronine (fT4) levels in human, monkey, dog, and rat sera.\n(§2) Stock solution of Compound I was prepared in 100% DMSO. The test articles were combined with either human, monkey, dog or rat serum in a microcentrifuge tube at concentrations of 1, 3, 10, 30, and 100 μM, and incubated at 37° C. with agitation (800 rpm) using a Thermomixer R (Eppendorf, Inc.; Westbury, N.Y.) for 1 h. The DMSO concentration in the serum incubations was kept constant at 1%. Following the serum incubations, fT3 and T4 quantification was accomplished using the GammaCoat™ FT3 and the GammaCoat™ FT4 RIA kits, respectively. The kits were used according to the manufacturer's recommendations. The T3 assay specifications indicate 0.2% cross-reactivity with T4, while the T4 assay specifications indicate 0.5% cross-reactivity with T3. In these […] assays, a shaking water bath and a Wallac Wizard 1470 automatic gamma counter (Perkin Elmer, Inc.; Waltham, Mass.) were used. At each concentration tested, a background signal was subtracted from the data. This background signal was determined in samples of the test articles in PBS in the absence of serum. All assays were performed in duplicate."}, "[2]": {"test_system": "fT3 and fT4 levels in rat serum", "experiment": "Ex vivo effect on fT3 and fT4 levels in rat serum (RIA)", "settings": "1 h at 37° C., 1-100 μM tested", "procedure": "as §1, §2"}, "beagle dogs [3]": {"test_system": "beagle dogs", "experiment": "Comparison of Compound I and MB07811: cholesterol, tT4 and TSH in beagle dogs", "assay_type": "in vivo, dog", "procedure": "Compound I was compared with Compound MB07811 with respect to their efficacy in lowering cholesterol and their effects on the total T4 (tT4) and thyroid stimulating hormone (TSH).\nCompound I and Compound MB07811 were tested to determine the effects of oral administration of each compound once-daily for 14 days followed by alternate day dosing for 14 days on plasma cholesterol levels and indicators of thyroid function in beagle dogs.\n(§3) Male and female Beagle dogs were purchased from Marshall Farms (North Rose, N.Y.) at approximately 9-15 kg. Animals were housed individually under a 12-hour lighting cycle (7 am-7 pm light) and controlled temperature (˜22° C.). The dogs were fed twice daily with Teklad 8563 chow (Harlan Teklad, Madison, Wis.) and allowed water ad libitum.\nMB07811 was administered as a suspension in 0.5% CMC/1% Lutrol in deionized water. To prepare the vehicle, the required amount of CMC was weighed and dissolved in deionized water using a Waring blender. The required amount of Lutrol F68 was weighed and slowly added to the Waring blender while mixing. […]\nTwelve beagle dogs (9-15 kg) were randomized into 6 dosing groups (1 male and 1 female/group) and gavaged once-daily with a 0.5% CMC/1% Lutrol F68 suspension of MB07811 at doses of […] or with vehicle for 14 days. […] Blood samples were collected at baseline and appropriate time intervals thereafter and analyzed for total plasma cholesterol levels, serum levels of total T4 (tT4), free T4 (fT4), total T3 (tT3), free T3 (fT3), and thyroid stimulating hormone (TSH). […]\n(§4) Twelve beagle dogs (9-15 kg) were randomized into 6 dosing groups (1 male and 1 female/group) and gavaged once-daily with a PEG-400 solution of Compound I at doses of 0.1, 0.3, 1, 3, or 10 mg/kg or with vehicle for 14 days. […] Blood samples were collected at baseline and appropriate time intervals thereafter and analyzed for total plasma cholesterol levels, serum levels of total T4 (tT4), free T4 (fT4), total T3 (tT3), free T3 (fT3), and thyroid stimulating hormone (TSH), and for plasma drug levels"}, "beagle dogs [4]": {"test_system": "beagle dogs", "experiment": "Once-daily oral administration for 14 days, total plasma cholesterol in beagle dogs", "assay_type": "in vivo, dog", "settings": "14 days once-daily oral, 0.1-10 mg/kg/day", "procedure": "(§5) The effects of once-daily oral administration of Compound I on plasma cholesterol levels and thyroid function indicators in beagle dogs were evaluated for 14 days.\nas §3, with “beagle” for “Beagle”, “kg in body weight.” for “kg.”, “12 hour” for “12-hour”, “twice-daily” for “twice daily”\nCompound I was dissolved in 100% PEG-400. The formulation was prepared just prior to initiation of treatment and stored at 4° C. […]\nas §4, with “(fT3),” for “(fT3), and”, “and” for “and for”, “drug levels.” for “drug levels”\nTotal plasma cholesterol was measured using an Infinity cholesterol reagent (Thermo Electron Corporation, Waltham, Mass.) and with use of a standard curve prepared from a 300 mg/dL cholesterol standard. […]"}, "rat": {"test_system": "rat", "experiment": "Pilot rat 28-day safety study", "settings": "28 days; 1 and 5 mg/kg per day", "experimental": "Two doses were tested, 1 mg/kg per day and 5 mg/kg per day. […] The mice were sacrificed on day 29 and then analyzed for clinical signs, BW, FC Clinical pathology (including TSH, T3, T4), gross pathology, organ weights, histopathology, toxicokinetics."}, "beagle dogs [5]": {"test_system": "beagle dogs", "experiment": "Once-daily oral administration for 14 days, thyroid function tests (tT4, fT4, tT3, fT3, TSH) in beagle dogs", "assay_type": "in vivo, dog", "procedure": "as §5\nas §3, with “beagle” for “Beagle”, “kg in body weight.” for “kg.”, “12 hour” for “12-hour”, “twice-daily” for “twice daily”\nCompound I was dissolved in 100% PEG-400. The formulation was prepared just prior to initiation of treatment and stored at 4° C. A fresh formulation was prepared for each 7 day treatment period.\nTwelve beagle dogs (9-15 kg) were randomized into 6 dosing groups (1 male and 1 female/group) and gavaged once-daily with a PEG-400 solution of Compound I at doses of 0.1, 0.3, 1, 3, or 10 mg/kg or with vehicle for 14 days. At the end of the treatment cycle (Cycle 1), the dogs were washed out for 6 weeks and then entered into a second 14-day treatment cycle. Cycle 2 employed the same dosing paradigm as Cycle 1, but animals were randomized to Cycle 2 in such a way that the combined dosing groups from the two cycles each consisted of 4 different animals (2 males, 2 females). Blood samples were collected at baseline and appropriate time intervals thereafter and analyzed for total plasma cholesterol levels, serum levels of total T4 (tT4), free T4 (fT4), total T3 (tT3), free T3 (fT3), thyroid stimulating hormone (TSH), and plasma drug levels.\nSerum samples were shipped on dry ice to the Diagnostic Center for Population and Animal Health (Lansing, Mich.) and assayed for total T4 (tT4), free T4 (fT4), total T3 (tT3), free T3 (fT3), and thyroid stimulating hormone (TSH). Average values±the standard error of the mean (SEM) were calculated for all treatment groups."}, "[6]": {"test_system": "fT3 and fT4 levels in monkey serum", "experiment": "Ex vivo effect on fT3 and fT4 levels in monkey serum (RIA)", "settings": "1 h at 37° C., 1-100 μM tested", "procedure": "as §1, §2"}, "[7]": {"test_system": "fT3 and fT4 levels in dog serum", "experiment": "Ex vivo effect on fT3 and fT4 levels in dog serum (RIA)", "settings": "1 h at 37° C., 1-100 μM tested", "procedure": "as §1, §2"}, "[8]": {"test_system": "cholesterol-fed Sprague Dawley rat", "experiment": "Single oral dose, plasma cholesterol lowering in cholesterol-fed rat", "assay_type": "in vivo", "settings": "24 hours", "procedure": "Compound I was tested to determine the cholesterol lowering efficacy and potency of Compound I following oral administration of single dose to a standard rodent model of hypercholesterolemia, the cholesterol-fed Sprague Dawley rat.\nMale Sprague Dawley rats were obtained from Harlan (Livermore, Calif.) at a body weight of 250 g, caged 3 rats/cage, and housed under a 12 h:12 h, light:dark cycle (lights on at 7 AM). Pelleted 5001 chow containing 1.5% cholesterol and 0.5% cholic acid (Harlan Teklad, Indianapolis, Ind.) was provided for 2 weeks prior to the initiation of treatment. Food and water were provided ad libitum.\nCompound I was dissolved in 100% PEG-400. […]\nMale Sprague Dawley rats (˜250 g) were fed a diet containing 1.5% cholesterol and 0.5% cholic acid for 2 weeks prior to the initiation of treatment. Compound I was administered as an oral solution in PEG-400 and phosphate buffered saline, respectively, at doses ranging from 0.3 to 100 mg/kg Compound I. Thyroid hormone T3 (0.1 mg/kg) was evaluated as a positive control. […]\nPlasma was prepared from the blood samples by centrifugation in an Eppendorf Microfuge (14,000 rpm, 2 min, room temperature). Total plasma cholesterol was measured using the Infinity cholesterol reagent (Thermo Electron Corporation, Waltham, Mass.) and a standard curve prepared with a 300 mg/dL cholesterol standard. […]"}, "[9]": {"settings": "all five doses 0.1, 0.3, 1, 3, 10 mg/kg, baseline, 8-day, 15-day"}}, "note": "Entries after “also recorded” stand apart in the source; their conditions may differ."}
{"smiles": "Cc1cc(OCP(=O)(OCOC(=O)C(C)(C)C)OCOC(=O)C(C)(C)C)cc(C)c1Cc1ccc(O)c(Cc2ccccc2)c1", "note": "[Compound I]", "values": [{"measurement": "concentration at which no effect on fT3 was shown", "setting": "[1]", "value": "less than 30"}, {"measurement": "concentration at which no effect on fT4 was shown", "setting": "[1]", "value": "less than 100 μM"}, {"measurement": "highest concentration at which no increase in fT3 level was observed", "setting": "[1]; 1 h at 37° C., 1-100 μM tested", "value": 30, "unit": "µM"}, {"measurement": "highest concentration at which no increase in fT4 level was observed", "setting": "[1]; 1 h at 37° C., 1-100 μM tested", "value": 100, "unit": "µM"}, {"measurement": "highest concentration at which no increase in fT3 level was observed", "setting": "[2]", "value": 100, "unit": "µM"}, {"measurement": "highest concentration at which no increase in fT4 level was observed", "setting": "[2]", "value": 100, "unit": "µM"}, {"measurement": "effect on T4 (tT4) levels in comparison", "setting": "beagle dogs [3]; [9]", "value": "reduced effect"}, {"measurement": "effect on serum TSH level in comparison with MB07811", "setting": "beagle dogs [3]; [9]", "value": "no effect"}, {"measurement": "effect on the thyroid hormone axis (T4 and TSH) versus MB07811", "setting": "beagle dogs [3]; dog, in vivo", "value": "much reduced effect"}, {"measurement": "reduction of total plasma cholesterol levels, dose dependent", "setting": "beagle dogs [4]", "value": "15-38%"}, {"measurement": "TFT effects greater than Compound MB07811", "setting": "rat", "value": "no evidence"}, {"measurement": "cardiac or liver necrosis", "setting": "rat", "value": "no evidence"}, {"measurement": "deaths or adverse effects on body weight, food consumption, hematology, serum chemistry or urinalysis, or macroscopic or microscopic pathology", "setting": "rat", "value": "no deaths or adverse effects"}, {"measurement": "reduction of serum fT3", "setting": "beagle dogs [5]; 14 days, highest dose group 10 mg/kg/day", "value": "about 45%"}, {"measurement": "reduction of serum tT4 from baseline", "setting": "beagle dogs [5]; Day 15, 1 mg/kg/day", "value": "about 29%"}, {"measurement": "tT4 levels reduced relative to baseline (in the fT3 paragraph, FIG. 9)", "setting": "beagle dogs [5]; Day 15, 10 mg/kg/day", "value": "~45", "unit": "%"}, {"measurement": "reduction of serum tT4 from baseline", "setting": "beagle dogs [5]; Day 15, 0.1, 0.3 and 3 mg/kg/day", "value": "6.7-9.5%"}, {"measurement": "change of serum TSH levels from baseline", "setting": "beagle dogs [5]; Day 15, 0.1 to 10 mg/kg/day", "value": "no meaningful changes; also recorded: did not show any effect; also recorded: essentially unaffected"}, {"measurement": "reduction of serum fT4 from baseline", "setting": "beagle dogs [5]; Day 15, all Compound I treated groups, not dose dependent, vehicle about 19%", "value": "13-32%"}, {"measurement": "reduction of serum fT3 from baseline", "setting": "beagle dogs [5]; Day 15, doses up to and including 3 mg/kg/day", "value": "8-20%"}, {"measurement": "reduction of serum tT3 from baseline", "setting": "beagle dogs [5]; Day 15, treatment groups, not dose dependent, vehicle about 13%", "value": "8-15%"}, {"measurement": "highest concentration at which no increase in fT3 level was observed", "setting": "[6]", "value": 30, "unit": "µM"}, {"measurement": "highest concentration at which no increase in fT4 level was observed", "setting": "[6]", "value": 100, "unit": "µM"}, {"measurement": "highest concentration at which no increase in fT3 level was observed", "setting": "[7]", "value": 100, "unit": "µM"}, {"measurement": "highest concentration at which no increase in fT4 level was observed", "setting": "[7]", "value": 100, "unit": "µM"}, {"measurement": "ED50", "setting": "[8]; Rattus norvegicus, single oral dose, read-out: ED50 (dose that elicits a half-maximal reduction in total plasma cholesterol levels from baseline)", "value": "~2", "unit": "mg/kg"}]}
{"smiles": "N[C@@H](Cc1cc(I)c(Oc2ccc(O)c(I)c2)c(I)c1)C(=O)O", "note": "[Compound T3, 3,5,3′-triiodo-L-thyronine, reference compound]", "values": [{"measurement": "magnitude of cholesterol lowering versus Compound I at its two highest doses", "setting": "[8]; T3 0.1 mg/kg, Compound I 30 and 100 mg/kg", "value": "comparable"}]}
